According to patent US9976141B2, “Compositions and methods for inhibiting gene expression of Hif2alpha” (Arrowhead Madison Inc., priority 2015, dated 2018):
Strand notation (5' to 3'): a small letter for the sugar, then the base; units joined by * are phosphorothioate-linked, units joined directly phosphodiester-linked; [ ] holds rarer units or linkages, { } end groups; capitals alone tell only the bases. d = 2'-deoxy (DNA); m = 2'-O-methyl; f = 2'-fluoro

System: human EPAS1 (Hif2α) cDNA in psiCHECK2 (Renilla luciferase/EPAS1 fusion mRNA) in Hep3B cells
Assay: Efficacy screen of Hif2α RNAi triggers in vitro, dual-luciferase reporter assay (1 nM and 0.1 nM)
Type: cell-based
Details: Hep3B cells co-transfected with EPAS1-psiCHECK2, Renilla luciferase normalized to firefly luciferase
How it was run: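 Hep3B cells (10,000/well) co-transfected with chemically modified siRNA triggers at 1 nM and 0.1 nM plus 25 ng EPAS1-psiCHECK2 plasmid via LipoFectamine 2000. Knockdown measured as Renilla luciferase from the EPAS1 fusion mRNA, normalized to constitutive firefly luciferase by dual-luciferase assay.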

Substance | Relative Rluc-Hif2α (0.1 nM RNAi trigger) | Relative Rluc-Hif2α (1 nM RNAi trigger)
2346 (sense fAmAfCmGfUmAfUmGfUmGfGmUfUmAfUmCfUmGfAdT; antisense dTfCmAfGmAfUmAfAmCfCmAfCmAfUmAfCmGfUmUdT*dT; siRNA) [compound 2346] | 0.523 ± 0.133 | 0.273 ± 0.012
2347 (sense fUmUfAmUfAmUfCmUfGmGfGmUfUmAfAmGfUmGfAdT; antisense dTfCmAfCmUfUmAfAmCfCmCfAmGfAmUfAmUfAmAdT*dT; siRNA) [compound 2347] | 0.753 ± 0.092 | 0.530 ± 0.040
2348 (sense fCmCfAmCfGmGfCmCfUmGfUmAfCmGfGmAfCmAfAdT; antisense dTfUmGfUmCfCmGfUmAfCmAfGmGfCmCfGmUfGmGdT*dT; siRNA) [compound 2348] | 0.840 ± 0.270 | 0.454 ± 0.096
2349 (sense fAmCfGmGfCmCfUmGfUmAfCmGfGmAfCmAfCmUfAdT; antisense dTfAmGfUmGfUmCfCmGfUmAfCmAfGmGfCmCfGmUdT*dT; siRNA) [compound 2349] | 0.674 ± 0.172 | 0.504 ± 0.062
2350 (sense fUmGfUmCfGmGfCmUfUmUfUmUfGmCfCmAfUmCfAdT; antisense dTfGmAfUmGfGmCfAmAfAmAfAmGfCmCfGmAfCmAdT*dT; siRNA) [compound 2350] | 0.755 ± 0.085 | 0.678 ± 0.105
2351 (sense fGmUfCmGfGmCfUmUfUmUfUmGfCmCfAmUfCmUfAdT; antisense dTfAmGfAmUfGmGfCmAfAmAfAmAfGmCfCmGfAmCdT*dT; siRNA) [compound 2351] | 1.216 ± 0.415 | 1.306 ± 0.216
2352 (sense fAmUfCmUfGmUfGmAfUmAfUmGfCmCfAmUfAmGfAdT; antisense dTfCmUfAmUfGmGfCmAfUmAfUmCfAmCfAmGfAmUdT*dT; siRNA) [compound 2352] | 1.012 ± 0.048 | 0.749 ± 0.049
2353 (sense fUmGfCmCfAmUfAmGfGmUfGmUfGmAfCmAfAmUfAdT; antisense dTfAmUfUmGfUmCfAmCfAmCfCmUfAmUfGmGfCmAdT*dT; siRNA) [compound 2353] | 0.635 ± 0.156 | 0.324 ± 0.075
2354 (sense fCmCfAmUfAmGfGmUfGmUfGmAfCmAfAmUfCmCfAdT; antisense dTfGmGfAmUfUmGfUmCfAmCfAmCfCmUfAmUfGmGdT*dT; siRNA) [compound 2354] | 1.043 ± 0.239 | 0.741 ± 0.189
2355 (sense fCmAfUmAfGmGfUmGfUmGfAmCfAmAfUmCfCmGfAdT; antisense dTfCmGfGmAfUmUfGmUfCmAfCmAfCmCfUmAfUmGdT*dT; siRNA) [compound 2355] | 0.457 ± 0.066 | 0.248 ± 0.063
2356 (sense fAmUfAmGfGmUfGmUfGmAfCmAfAmUfCmCfGmAfAdT; antisense dTfUmCfGmGfAmUfUmGfUmCfAmCfAmCfCmUfAmUdT*dT; siRNA) [compound 2356] | 0.574 ± 0.006 | 0.210 ± 0.023
2357 (sense fGmGfUmGfUmGfAmCfAmAfUmCfCmGfAmGfCmAfAdT; antisense dTfUmGfCmUfCmGfGmAfUmUfGmUfCmAfCmAfCmCdT*dT; siRNA) [compound 2357] | 0.737 ± 0.082 | 0.435 ± 0.062
2358 (sense fAmCfAmAfUmCfCmGfAmGfCmAfGmUfGmGfAmGfAdT; antisense dTfCmUfCmCfAmCfUmGfCmUfCmGfGmAfUmUfGmUdT*dT; siRNA) [compound 2358] | 0.647 ± 0.113 | 0.731 ± 0.123
2359 (sense fCmCfGmAfGmCfAmGfUmGfGmAfGmUfCmAfUmUfAdT; antisense dTfAmAfUmGfAmCfUmCfCmAfCmUfGmCfUmCfGmGdT*dT; siRNA) [compound 2359] | 0.576 ± 0.208 | 0.354 ± 0.022
